Source: ChEMBL document CHEMBL1201862, “PubChem BioAssay data set” (2004)
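How tested: cells in 96-well plates exposed to compound for 48 hours at five concentrations. GI50 is the concentration that inhibits growth by half.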 Active and inactive are the calls of the source. Rule as the data show it: active = GI50 up to about 1.1 µM and inactive = higher.

Experiments:
Experiment in all cases: NCI anticancer screen, dose series, 48 h
HOP-62 = system: HOP-62
SNB-75 = system: SNB-75
OVCAR-4 = system: OVCAR-4
SF-268 = system: SF-268
A498 = system: A498
Malme-3M = system: Malme-3M
OVCAR-3 = system: OVCAR-3
UACC-257 = system: UACC-257
NCI-H226 = system: NCI-H226
K562 = system: K562
U-251 = system: U-251
HCT-116 = system: HCT-116
SW-620 = system: SW-620
UACC-62 = system: UACC-62
NCI-H23 = system: NCI-H23
HCC 2998 = system: HCC 2998
NCI-H522 = system: NCI-H522
CCRF-CEM = system: CCRF-CEM
RXF 393 = system: RXF 393
HOP-92 = system: HOP-92

Measured: GI50

CCCCCCCCCCCCSC(=S)c1c(C)[nH]n(CCCCCCCCCCCC)c1=O
inactive: HOP-62 > 100 µM | SNB-75 > 100 µM | OVCAR-4 > 100 µM | SF-268 48.9 µM | A498 > 100 µM | Malme-3M 34.6 µM | OVCAR-3 > 100 µM | UACC-257 > 100 µM | NCI-H226 > 100 µM | K562 > 100 µM | U-251 > 100 µM | HCT-116 43.6 µM | SW-620 77.6 µM | UACC-62 > 100 µM | NCI-H23 > 100 µM | HCC 2998 > 100 µM | NCI-H522 99.5 µM | CCRF-CEM 48.4 µM

O=c1ccc2ccc(CBr)cc2o1
inactive: RXF 393 1.94 µM | HOP-62 17 µM | HOP-92 1.68 µM | SNB-75 > 100 µM | A498 16 µM | UACC-257 11.7 µM | NCI-H226 10.7 µM | K562 2.18 µM | U-251 1.81 µM | HCT-116 1.88 µM | SW-620 1.72 µM | UACC-62 10.8 µM | NCI-H23 2.92 µM | HCC 2998 3.34 µM | NCI-H522 1.26 µM | CCRF-CEM 1.78 µM

CCOC(=O)/C(Cl)=C(\C)Nc1nc2c(ccc3ccccc32)s1
inactive: HOP-62 37.9 µM | SNB-75 14.6 µM | OVCAR-4 87.7 µM | SF-268 90.2 µM | A498 > 100 µM | Malme-3M 15.6 µM | OVCAR-3 46.8 µM | UACC-257 91.8 µM | NCI-H226 24.5 µM | K562 17.5 µM | U-251 > 100 µM | HCT-116 25.5 µM | SW-620 36.4 µM | UACC-62 41.9 µM | NCI-H23 31.3 µM | HCC 2998 16.4 µM | NCI-H522 9.35 µM | CCRF-CEM 7.87 µM

C[C@H](N[C@H]1CCC[C@]1(O)C#Cc1ccc2c(c1)OCO2)c1ccccc1
inactive: RXF 393 > 25 µM | HOP-62 > 25 µM | HOP-92 11.9 µM | SNB-75 15.4 µM | OVCAR-4 14 µM | SF-268 > 25 µM | A498 > 25 µM | UACC-257 > 25 µM | NCI-H226 > 25 µM | K562 11.7 µM | U-251 19.7 µM | UACC-62 > 25 µM | NCI-H23 > 25 µM | HCC 2998 10.7 µM | CCRF-CEM > 25 µM

Clc1nc(-[n+]2ccc(-c3ccncc3)cc2)nc(Nc2ccccc2)c1Cl
inactive: RXF 393 > 100 µM | HOP-62 > 100 µM | HOP-92 > 100 µM | OVCAR-4 > 100 µM | SF-268 > 100 µM | A498 > 100 µM | Malme-3M > 100 µM | OVCAR-3 > 100 µM | UACC-257 > 100 µM | NCI-H226 > 100 µM | K562 52.1 µM | U-251 70.5 µM | HCT-116 > 100 µM | SW-620 66.8 µM | UACC-62 > 100 µM | NCI-H23 > 100 µM | HCC 2998 > 100 µM | CCRF-CEM 27.9 µM

O=C1CCCN1CCC/N=c1/cc2n(-c3ccc(Cl)cc3)c3ccccc3nc-2cc1Nc1ccc(Cl)cc1
inactive: RXF 393 1.78 µM | HOP-62 12.9 µM | HOP-92 8.17 µM | SNB-75 25.6 µM | OVCAR-4 5.57 µM | SF-268 38.5 µM | A498 19.5 µM | Malme-3M 16.5 µM | OVCAR-3 2.09 µM | UACC-257 11.9 µM | NCI-H226 15.7 µM | K562 9.23 µM | U-251 22.1 µM | HCT-116 7.26 µM | SW-620 14.5 µM | UACC-62 11.5 µM | NCI-H23 8.26 µM | HCC 2998 5.18 µM | NCI-H522 9.23 µM | CCRF-CEM 12.6 µM

CC(C)(C)c1ccc2c(c1)OP1(Oc3c(Cl)cc(Cl)c4cccnc34)(O2)Oc2ccc(C(C)(C)C)cc2O1
inactive: RXF 393 13.3 µM | HOP-62 5.01 µM | HOP-92 2.4 µM | SNB-75 15.5 µM | OVCAR-4 10.3 µM | SF-268 7.16 µM | A498 14.1 µM | Malme-3M 10.8 µM | OVCAR-3 4.78 µM | UACC-257 4.03 µM | NCI-H226 8.97 µM | K562 3.94 µM | U-251 4.63 µM | HCT-116 5.22 µM | SW-620 6.43 µM | UACC-62 5.37 µM | NCI-H23 6.38 µM | HCC 2998 11.3 µM | NCI-H522 2.9 µM | CCRF-CEM 3.12 µM

Nc1nc(Cl)nc2c1ncn2C1CC(O)C(CO)O1 (stereo unspecified)
inactive: RXF 393 24.9 µM | HOP-92 1.3 µM | SNB-75 36.6 µM | OVCAR-4 > 100 µM | SF-268 26.4 µM | A498 2.95 µM | Malme-3M > 100 µM | OVCAR-3 25.8 µM | UACC-257 1.76 µM | NCI-H226 16.7 µM | K562 13.4 µM | U-251 10.4 µM | HCT-116 4.04 µM | SW-620 23 µM | HCC 2998 19.3 µM | NCI-H522 25.5 µM
active: HOP-62 0.33 µM | UACC-62 0.463 µM | NCI-H23 0.592 µM | CCRF-CEM 0.0713 µM

COc1cc(C2S/C(=C/c3ccccc3)C(=O)N2c2ccccc2Cl)cc(OC)c1OC (stereo unspecified)
inactive: RXF 393 9.53 µM | HOP-62 31.3 µM | HOP-92 14.3 µM | SNB-75 6.21 µM | OVCAR-4 28.2 µM | SF-268 30.3 µM | A498 43.4 µM | Malme-3M 29.8 µM | UACC-257 45.5 µM | NCI-H226 > 100 µM | U-251 22.1 µM | HCT-116 19 µM | UACC-62 20 µM | NCI-H23 24.3 µM | HCC 2998 33 µM | NCI-H522 12.4 µM
